Patent publication US20160168126A1, “CHEMICAL COMPOUNDS” (SYNGENTA LIMITED, priority 2013, published 2016)

Tested on: a variety of test species
Assay: Post-emergence herbicidal activity (glasshouse, sprayed 8 days after sowing, evaluated after 13 days)
Type: in vivo
Settings: scale 0-5
Experimental: Seeds of a variety of test species were sown in standard soil in pots. After 8 days cultivation (post-emergence) under controlled conditions in a glasshouse (at 24/16° C., day/night; 14 hours light; 65% humidity), the plants were sprayed with an aqueous spray solution derived from the formulation of the technical active ingredient in acetone/water (50:50) solution containing 0.5% Tween 20 (polyoxyethelyene sorbitan monolaurate, CAS RN 9005-64-5). The test plants were then grown in a glasshouse under controlled conditions (at 24/16° C., day/night; 14 hours light; 65% humidity) and watered twice daily. After 13 days, the test was evaluated (5=total damage to plant; 0=no damage to plant).

Structure (SMILES)	Post-emergence herbicidal damage score, ABUTH (Abutilon theophrasti) (1000 g/ha)	Post-emergence herbicidal damage score, ALOMY (Alopecurus myosuroides) (1000 g/ha)	Post-emergence herbicidal damage score, AMARE (Amaranthus retroflexus) (1000 g/ha)	Post-emergence herbicidal damage score, ECHCG (Echinochloa crus-galli) (1000 g/ha)	Post-emergence herbicidal damage score, SETFA (Setaria faberi) (1000 g/ha)	Post-emergence herbicidal damage score, ZEAMX (Zea mays) (1000 g/ha)	Post-emergence herbicidal damage score, ABUTH (Abutilon theophrasti) (250 g/ha)	Post-emergence herbicidal damage score, ALOMY (Alopecurus myosuroides) (250 g/ha)	Post-emergence herbicidal damage score, AMARE (Amaranthus retroflexus) (250 g/ha)	Post-emergence herbicidal damage score, ECHCG (Echinochloa crus-galli) (250 g/ha)	Post-emergence herbicidal damage score, SETFA (Setaria faberi) (250 g/ha)	Post-emergence herbicidal damage score, ZEAMX (Zea mays) (250 g/ha)
CC1=C(Cl)C(O)N(c2cc(C(F)(F)F)[nH]n2)C1=O (stereo not drawn) [Compound A2]	4	1	1	2	2	0						
CC1=C(Cl)C(O)N(c2cc(C(C)C)[nH]n2)C1=O (stereo not drawn) [Compound A3]							5	5	5	5	4	1
CC1=C(Cl)C(O)N(c2cc(C3CC3)[nH]n2)C1=O (stereo not drawn) [Compound A4]	5	4	4	5	4	1						
CC1=C(Cl)C(O)N(c2cc(C)[nH]n2)C1=O (stereo not drawn) [Compound A5]	5	4	3	2	4	2						
CC1=C(Cl)C(O)N(c2cc(C(F)(F)C(F)(F)F)[nH]n2)C1=O (stereo not drawn) [Compound A6]	2	1	3	2	2	1						
CCC(C)(CC)c1cc(N2C(=O)C(C)=C(Cl)C2O)n[nH]1 (stereo not drawn) [Compound A7]	5	3	5	5	5	1						
CC1=C(Cl)C(O)N(c2cc(C)n(C)n2)C1=O (stereo not drawn) [Compound B1]	5	2	5	2	1	1						
CC1=C(Cl)C(O)N(c2cc(C(C)(C)C)n(C)n2)C1=O (stereo not drawn) [Compound B2, 1-(5-tert-butyl-1-methyl-1H-pyrazol-3-yl)-4-chloro-5-hydroxy-3-methyl-1,5-dihydro-pyrrol-2-one]	5	5	5	5	5	2						
CC1=C(Cl)C(O)N(c2cc(C(F)(F)F)n(C)n2)C1=O (stereo not drawn) [Compound B3]	5	5	5	5	4	1						
CC1=C(Cl)C(O)N(c2cc(C(F)(F)C(F)(F)F)n(C)n2)C1=O (stereo not drawn) [Compound B4]	5	4	5	4	3	0						
CC1=C(Cl)C(O)N(c2cc(C(C)C)n(C)n2)C1=O (stereo not drawn) [Compound B5]							5	4	5	5	4	3
